Values quoted from earlier work in patent US20080269347A1, “EPINEPHRINE FORMULATIONS” (Azopharma, Inc., priority 2006, published 2008).
Counter-ions that a name gives are not always drawn. Like-named read-outs stand apart in the source and are kept apart here.

pH at which unstable (in dextrose (5% in water)): above 5.5
decomposition (pH 2.5, in 200 days at 30° C.): 5%
decomposition (pH 4.5, in 200 days at 30° C.): 10%
Compound: CNC[C@H](O)c1ccc(O)c(O)c1 [Epinephrine hydrochloride]
stability when mixed with lidocaine hydrochloride (intravenous admixture, pH raised above 5.5 to about 6): begin to deteriorate within several hours
